Results on six molecules are retold here after US20230322743A1, “NOVEL […] DERIVATIVES HAVING PRODRUG PROPERTIES” (Compass Pathfinder Limited, priority 2020, published 2023).

SMILES strings stand for the structures. In brackets after ≈: the same amount, converted by molar mass.

Data set [1] in a line: Micro shake flask LogD. To be noted: for Mean LogD: Octanol:PBS 1:9 at pH 7.4, 10 μM, six replicates. On the procedure: 6 replicates of each test compound were incubated at 10 μM in a 1:9 ratio of Octanol:PBS at pH 7.4. Following a two hour incubation at room temperature shaking at 600 rpm, the incubation plate was centrifuged for 15 minutes to separate the layers and then two aliquots were removed from the PBS layer. The first was left neat and the second was diluted 10-fold to give dilute samples. Internal standards were added to both the calibration curve and the PBS incubation samples for analysis on LC MS/MS. […] 5,6-MDAI-tryptophanamide and 3,4-MDA-tryptophanamide were prepared as hemioxalate salts.
LogD was measured as the concentration in the PBS layer against the generated calibration curve relative to the starting concentration of 10 μM. All 6 replicates of the neat samples were averaged to give one value for each, with the same calculation performed for the dilute sample values.
6 replicates of each test compound were incubated at 10 μM in a 1:9 ratio of Octanol:PBS at pH 7.4. Following a two hour incubation at room temperature shaking at 600 rpm, the incubation plate was centrifuged for 15 minutes to separate the layers and then two aliquots were removed from the PBS layer. The first was left neat and the second was diluted 10-fold to give dilute samples.

The subject of data set [2] is behavioural measures of serotonin syndrome. The data set can be described thus: Behavioural observations for measures of serotonin syndrome in rats. Particulars: rat, PO, 5 mg/kg; scored post-treatment up to 2 hours.
Data set [3] is described as follows: Kinetic turbidimetric solubility assay. To be noted: for Solubility: Example 12, 0.01 M phosphate buffered saline pH 7.4, 2% DMSO, room temperature, maximum concentration tested 200 μM, test compounds as hemioxalate salts; for solubility at 5 min: phosphate buffered saline, pH 7.4, aqueous buffer, kinetic from dmso stock.
The subject of data set [4] is monoamine neurotransmitter release. The data set can be described thus: Microdialysis of nucleus accumbens with HPLC analysis of dopamine, noradrenaline and serotonin. In kind it is in vivo, Male Sprague Dawley rats. Particulars: rat, PO, 5 mg/kg.
In data set [5] the test system is rats. Particulars: previously shown, Baumann et al. 2008; cited from earlier work.
Data set [6] deals with locomotor activity. Briefly: Locomotor activity in rats following oral dosing (EthoVision tracking). To be noted: rat, 5 mg/kg. In kind it is in vivo, Male Sprague Dawley rats.
The mark [7] stands for this setting: Example 13, glycinamides as hemioxalate salts.
Where [8] appears, read: Example 12, test compounds as hemioxalate salts.

As to `CC(Cc1ccc2c(c1)OCO2)NC(=O)CN` (centres unmarked) [3,4-MDA-glycinamide], the “Mean LogD” value in data set [1] (setting [7]) stood at 1.08. Also, in data set [1] (Example 13, Octanol:PBS at pH 7.4), the “LogD compared with that of MDMA” value is “slightly greater than that of MDMA”.
As for `CC(Cc1ccc2c(c1)OCO2)NC(=O)[C@@H](N)Cc1c[nH]c2ccccc12` (some centres unmarked) [3,4-MDA-tryptophanamide], the “Observations (approximate timecourse), behaviours significantly increased vs vehicle” value in data set [2] is recorded as “None”. Further, the “Mean LogD” value in data set [1] (setting [8]) is 1.97. Also, in data set [3], the Solubility is greater than 200 µM. Moreover, in data set [4] (2 hour period following dosing), the “Dopamine levels in nucleus accumbens, compared to the vehicle group” value is “significant increases”; the “Noradrenaline levels in nucleus accumbens, compared to the vehicle group” value is given as “significant increases”; the “Serotonin levels in nucleus accumbens, compared to the vehicle group” value is reported as “significant increases”. For the same molecule, in data set [4] (nucleus accumbens), the “Magnitude of effect on serotonin levels compared to MDMA” value is listed as “smaller in magnitude compared to MDMA”; the “Magnitude of effects on dopamine and noradrenaline levels compared to MDMA” value is reported as “smaller in magnitude compared to MDMA”.
Take `CC(Cc1ccc2c(c1)OCO2)N(C)C(=O)CN` (centres unmarked) [3,4-MDMA-glycinamide]: the “Mean LogD” value in data set [1] (setting [7]) came out at 0.66.
Regarding `N[C@@H](Cc1c[nH]c2ccccc12)C(=O)NC1Cc2cc3c(cc2C1)OCO3` [5,6-MDAI-tryptophanamide], the “Observations (approximate timecourse), behaviours significantly increased vs vehicle” value in data set [2] was “None”. Further, the “Mean LogD” value in data set [1] (setting [8]) is on record as 2.31. The Solubility in data set [3] is greater than 200 µM. Besides, in data set [4] (2 hour period following dosing), the “Serotonin levels in nucleus accumbens, compared to the vehicle group” value is reported as “significant increases”. For the same molecule, in data set [4] (nucleus accumbens), the “Magnitude of effect on serotonin levels compared to MDMA” value is “smaller in magnitude compared to MDMA”.
`CNC(C)Cc1ccc2c(c1)OCO2` (centres unmarked) [MDMA, 3,4-Methylenedioxy-N-methylamphetamine]: in data set [2], the “Observations (approximate timecourse), behaviours significantly increased vs vehicle” value is “Flattened posture (~0-40 mins) and hind limb”. In addition, in data set [5], the “Behavioural measures of serotonin syndrome” value is “induce”, the Locomotion entry is recorded as “hyperlocomotion” and the Monoamine neurotransmitter levels entry was “elevations”. In addition, the logD at 2 h in data set [1] (pH 7.4) came out at 0.57. Further, the solubility at 5 min in data set [3] was no less than 200 µM. In addition, in data set [6] (0-60 mins), the “Effect on locomotor activity (significant change in total distance travelled vs vehicle)” value is given as “↑↑↑ (↑↑↑, p < 0.001)”. Further, the “Effect on locomotor activity (significant change in total distance travelled vs vehicle)” value in data set [6] (0-120 mins) is “↑↑↑ (↑↑↑, p < 0.001)”. Further, in data set [6] (60-120 mins), the “Effect on locomotor activity (significant change in total distance travelled vs vehicle)” value is reported as “↑↑↑ (↑↑↑, p < 0.001)”.
`COC(=O)C1=C(C)NC(C)=C(C(=O)OCCN(C)Cc2ccccc2)C1c1cccc([N+](=O)[O-])c1` (centres unmarked) [Nicardipine, reference compound] returned a solubility at 5 min in data set [3] of 22.1 µM (≈ 10.6 µg/mL).
